Source: PubChem BioAssay AID2060349 (Molecular Pharmacology Branch, DTP, NCI, 2025)

System: 762968-020-R-J2-PDC spheroids viability
Test: Anticancer human tumor 762968-020-R-J2-PDC patient-derived colon carcinoma cell line growth inhibition [TAK]
Conditions: spheroids with HUVEC and MSC; for IC50: curve of first compound; for viability, T/C: stronger effect = lower value; active means viability on the fitted dose curve at most 10% of control; inactive means the rest
Text: Combinatorial screen of targeted agents with TAK-243 and ipatasertib in multi-cell type tumor spheroids
A high-throughput screen of multi-cell type tumor spheroids was designed to identify active combinations of targeted small molecules and TAK-243 or ipatasertib. Complex spheroids include a stromal component modeled by human endothelial cells (HUVEC) and fibroblasts modeled by human mesenchymal stem cells (MSCs). The concentration ranges selected for each drug and investigational agent were based upon clinically achievable concentrations if the clinical Cmax of the agent was known.
Compounds. The drugs and investigational agents: TAK-243 (785004), ipatasertib (767898), everolimus (733504), selumetinib (741078), bortezomib (756655), trametinib (758246), ixazomib (758254), vemurafenib (761431), dabrafenib (764134), sapanisertib (764658), alpelisib (765974), and copanlisib (816437), were obtained from the National Cancer Institute (NCI) Developmental Therapeutics Program Chemical Repository. The FDA-approved anticancer drug set is available from the NCI Developmental Therapeutics Program. […] The stock solutions were prepared in dimethyl sulfoxide (DMSO, Sigma-Aldrich, St. Louis, MO, cat. D2650) at 800-fold the tested concentration and stored at -70 degrees C prior to their use. All drugs and investigational agents were tested over a range starting from a high concentration at or near the clinical Cmax and decreasing in half-log increments. If the clinical Cmax for an agent had not been determined, the highest concentration tested was 10 microM.
NCI60 Cell Culture. NCI60 cell lines were obtained from the NCI Developmental Therapeutics Program Tumor Repository. For each lot of cells, the Repository performed Applied Biosystems AmpFLSTR Identifiler testing with PCR amplification to confirm consistency with the published Identifier STR profile for each cell line. Cells were kept in continuous culture for no more than 20 passages. The optimal seeding densities for each of the cell lines at each time point assessed were determined prior to performing the concentration response studies. Briefly, the NCI60 human tumor lines were grown as monolayers in RPMI 1640 medium supplemented with 10% FBS and 2 mmol/L L-glutamine.
An additional 2 lines were from the NCI60 cell line panel including melanomas, MALME-3M and SK-MEL-2. Pooled donor human umbilical vein endothelial cells (HUVEC, Lonza, cat. CC-2519) and human mesenchymal stem cells (hMSC, Lonza, cat. PT-2501) were purchased from Lonza (Walkersville, MD).
PDMR cell lines were grown in complete medium (DC medium): Dulbecco's modified Eagle's medium (DMEM)/F12 supplemented with 5% fetal bovine serum (FBS), 2 mM L-glutamine, 100 U/mL penicillin and 100 µg/ml streptomycin, 0.4 µg/ml hydrocortisone, 10 ng/ml epidermal growth factor (EGF) recombinant human protein, 24 µg/mL adenine, and 0.1 mg/mL primocin. During culture from frozen stock vials, PDMR cells were cultured in the same medium containing 10 µM Y-27632 (see Table 3). The PDCs were cultured in complete DMEM/F12 media without 10 microM Y-27632 dihydrochloride for at least two passages prior to the screen. The pooled donor HUVEC and hMSC were cultured in endothelial cell growth medium 2 (PromoCell, Heidelberg, Germany, cat. C-22011) and mesenchymal stem cell growth medium 2 (PromoCell, cat. C-28009), respectively. For all experiments, HUVEC and hMSC were used at passages </=5.
For the pre-screen, cell seeding densities were determined from a titration spanning the range from 5,000 to 313 cells per well. The mct-spheroids including 60% malignant cells, 25% HUVEC and 15% MSC dispensed as a mixture into U-bottom Ultra-Low Attachment 384-well plates (Corning, NY)
High-throughput Drug Combination Screening.
Prior to their inoculation into 384-well plates, malignant cells, HUVEC, and hMSC were removed from T flasks using TrypLE express (Thermo Fisher Scientific, cat. 12605036) and harvested by centrifugation for 5 min at 233 x g. […]
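Further: spheroids exposed to drug for 7 days before readout.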

COC1CC2CCC(C)C(O)(O2)C(=O)C(=O)N2CCCCC2C(=O)OC(C(C)CC2CCC(OCCO)C(OC)C2)CC(=O)C(C)C=C(C)C(O)C(OC)C(=O)C(C)CC(C)C=CC=CC=C1C (stereo not given) + CC(C)NCC(C(=O)N1CCN(c2ncnc3c2C(C)CC3O)CC1)c1ccc(Cl)cc1
> 100 nM: IC50 (second compound 0.3 µM) | IC50 (second compound 0.949 µM) | IC50 (second compound 3 µM) | IC50 (second compound 9.49 µM) | IC50 (second compound 30 µM)
inactive: viability, T/C (second compound 0.3 µM, first compound 0.000316 µM) 102% | viability, T/C (second compound 0.3 µM, first compound 0.001 µM) 106% | viability, T/C (second compound 0.3 µM, first compound 0.00316 µM) 103% | viability, T/C (second compound 0.3 µM, first compound 0.01 µM) 103% | viability, T/C (second compound 0.3 µM, first compound 0.0316 µM) 103% | viability, T/C (second compound 0.3 µM, first compound 0.1 µM) 102% | viability, T/C (second compound 0.949 µM, first compound 0.000316 µM) 104% | viability, T/C (second compound 0.949 µM, first compound 0.001 µM) 104% | viability, T/C (second compound 0.949 µM, first compound 0.00316 µM) 111% | viability, T/C (second compound 0.949 µM, first compound 0.01 µM) 105% | viability, T/C (second compound 0.949 µM, first compound 0.0316 µM) 99.5% | viability, T/C (second compound 0.949 µM, first compound 0.1 µM) 92.3% | viability, T/C (second compound 3 µM, first compound 0.000316 µM) 107% | viability, T/C (second compound 3 µM, first compound 0.001 µM) 109% | viability, T/C (second compound 3 µM, first compound 0.00316 µM) 109% | viability, T/C (second compound 3 µM, first compound 0.01 µM) 105% | viability, T/C (second compound 3 µM, first compound 0.0316 µM) 95.1% | viability, T/C (second compound 3 µM, first compound 0.1 µM) 97.5% | viability, T/C (second compound 9.49 µM, first compound 0.000316 µM) 104% | viability, T/C (second compound 9.49 µM, first compound 0.001 µM) 105% | viability, T/C (second compound 9.49 µM, first compound 0.00316 µM) 95.5% | viability, T/C (second compound 9.49 µM, first compound 0.01 µM) 101% | viability, T/C (second compound 9.49 µM, first compound 0.0316 µM) 93.9% | viability, T/C (second compound 9.49 µM, first compound 0.1 µM) 100% | viability, T/C (second compound 30 µM, first compound 0.000316 µM) 92.2% | viability, T/C (second compound 30 µM, first compound 0.001 µM) 89% | viability, T/C (second compound 30 µM, first compound 0.00316 µM) 92.3% | viability, T/C (second compound 30 µM, first compound 0.01 µM) 86.4% | viability, T/C (second compound 30 µM, first compound 0.0316 µM) 92.2% | viability, T/C (second compound 30 µM, first compound 0.1 µM) 84.5%

Cn1cnc2c(F)c(Nc3ccc(Br)cc3Cl)c(C(=O)NOCCO)cc21 + CC(C)NCC(C(=O)N1CCN(c2ncnc3c2C(C)CC3O)CC1)c1ccc(Cl)cc1
> 3000 nM: IC50 (second compound 0.949 µM) | IC50 (second compound 3 µM) | IC50 (second compound 9.49 µM) | IC50 (second compound 30 µM)
inactive: viability, T/C (second compound 0.3 µM, first compound 0.00949 µM) 94.6% | viability, T/C (second compound 0.3 µM, first compound 0.03 µM) 95.5% | viability, T/C (second compound 0.3 µM, first compound 0.0949 µM) 89.6% | viability, T/C (second compound 0.3 µM, first compound 0.3 µM) 84.2% | viability, T/C (second compound 0.3 µM, first compound 0.949 µM) 69.9% | viability, T/C (second compound 0.3 µM, first compound 3 µM) 44.5% | viability, T/C (second compound 0.949 µM, first compound 0.00949 µM) 103% | viability, T/C (second compound 0.949 µM, first compound 0.03 µM) 97.5% | viability, T/C (second compound 0.949 µM, first compound 0.0949 µM) 87% | viability, T/C (second compound 0.949 µM, first compound 0.3 µM) 83.4% | viability, T/C (second compound 0.949 µM, first compound 0.949 µM) 74.8% | viability, T/C (second compound 0.949 µM, first compound 3 µM) 50.5% | viability, T/C (second compound 3 µM, first compound 0.00949 µM) 106% | viability, T/C (second compound 3 µM, first compound 0.03 µM) 97.7% | viability, T/C (second compound 3 µM, first compound 0.0949 µM) 95.2% | viability, T/C (second compound 3 µM, first compound 0.3 µM) 85.8% | viability, T/C (second compound 3 µM, first compound 0.949 µM) 72.2% | viability, T/C (second compound 3 µM, first compound 3 µM) 58.4% | viability, T/C (second compound 9.49 µM, first compound 0.00949 µM) 96.5% | viability, T/C (second compound 9.49 µM, first compound 0.03 µM) 83.7% | viability, T/C (second compound 9.49 µM, first compound 0.0949 µM) 80.6% | viability, T/C (second compound 9.49 µM, first compound 0.3 µM) 79.1% | viability, T/C (second compound 9.49 µM, first compound 0.949 µM) 66.3% | viability, T/C (second compound 9.49 µM, first compound 3 µM) 55.8% | viability, T/C (second compound 30 µM, first compound 0.00949 µM) 82.7% | viability, T/C (second compound 30 µM, first compound 0.03 µM) 85.3% | viability, T/C (second compound 30 µM, first compound 0.0949 µM) 83.2% | viability, T/C (second compound 30 µM, first compound 0.3 µM) 79% | viability, T/C (second compound 30 µM, first compound 0.949 µM) 70.5% | viability, T/C (second compound 30 µM, first compound 3 µM) 57.8%
2350 nM: IC50 (second compound 0.3 µM)
